Assay results reported in US7504420B2, “Compounds which inhibit beta-secretase activity and methods of use” (CoMentis, Inc., priority 2005, dated 2009).

Assays:
memapsin 2 = memapsin 2 (Homo sapiens, UniProt P56817); assay: Inhibition of memapsin 2 catalytic activity (Ki); type: biochemical; settings: memapsin 2, pH 4, 37° C.; read-out: M2K
Outline: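 Run at 37 °C and pH 4: compound and enzyme pre-incubated 20 min before FS-2 fluorogenic substrate started hydrolysis,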

cathepsin D = cathepsin D (Homo sapiens, UniProt P07339); assay: Inhibition of cathepsin D catalytic activity (Ki); type: biochemical; settings: pH 4.0, 37° C., read-out: CDK
memapsin 1 = molecular target: T1, memapsin 1 (Homo sapiens, UniProt Q9Y5Z0); assay: Inhibition of memapsin 1 catalytic activity (Ki); type: biochemical; settings: memapsin 1, pH 4.0, 37° C.; read-out: M1K
T1 sequence (Q9Y5Z0 63-518): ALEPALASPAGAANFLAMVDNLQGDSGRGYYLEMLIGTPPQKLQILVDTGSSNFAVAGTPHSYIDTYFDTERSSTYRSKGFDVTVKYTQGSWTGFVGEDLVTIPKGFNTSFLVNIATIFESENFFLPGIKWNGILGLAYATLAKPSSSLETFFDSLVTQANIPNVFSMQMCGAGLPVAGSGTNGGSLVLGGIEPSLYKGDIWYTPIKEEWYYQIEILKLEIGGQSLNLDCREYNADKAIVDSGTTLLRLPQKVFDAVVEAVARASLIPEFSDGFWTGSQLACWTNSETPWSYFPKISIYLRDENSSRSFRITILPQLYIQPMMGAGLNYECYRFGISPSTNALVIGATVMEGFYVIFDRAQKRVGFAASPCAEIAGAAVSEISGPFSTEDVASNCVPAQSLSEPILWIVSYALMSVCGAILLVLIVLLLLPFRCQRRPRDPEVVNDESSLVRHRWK

[1] = test system: Aβ production in Chinese hamster ovary cells that over-express human APP695 with the London and Swedish mutations; assay: Cellular Aβ IC50 determination (Aβ40 sandwich ELISA); settings: Cricetulus griseus, CHO, 24 h, read-out: Cell, Aβ40, CHO cells over-expressing human APP695 (London and Swedish mutations), 24 h

Chain of cathepsin D (P07339 65-412, species assumed): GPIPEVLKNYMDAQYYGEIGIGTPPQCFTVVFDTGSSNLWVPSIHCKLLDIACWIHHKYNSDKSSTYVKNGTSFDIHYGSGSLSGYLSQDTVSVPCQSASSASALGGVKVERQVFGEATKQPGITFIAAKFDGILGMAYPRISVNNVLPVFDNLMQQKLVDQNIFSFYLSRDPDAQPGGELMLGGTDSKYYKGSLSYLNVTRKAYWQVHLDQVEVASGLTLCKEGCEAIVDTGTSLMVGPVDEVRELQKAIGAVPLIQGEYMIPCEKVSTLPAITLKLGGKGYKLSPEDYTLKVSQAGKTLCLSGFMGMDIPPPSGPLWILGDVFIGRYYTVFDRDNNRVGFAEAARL
Chain of memapsin 2 (P56817 46-501): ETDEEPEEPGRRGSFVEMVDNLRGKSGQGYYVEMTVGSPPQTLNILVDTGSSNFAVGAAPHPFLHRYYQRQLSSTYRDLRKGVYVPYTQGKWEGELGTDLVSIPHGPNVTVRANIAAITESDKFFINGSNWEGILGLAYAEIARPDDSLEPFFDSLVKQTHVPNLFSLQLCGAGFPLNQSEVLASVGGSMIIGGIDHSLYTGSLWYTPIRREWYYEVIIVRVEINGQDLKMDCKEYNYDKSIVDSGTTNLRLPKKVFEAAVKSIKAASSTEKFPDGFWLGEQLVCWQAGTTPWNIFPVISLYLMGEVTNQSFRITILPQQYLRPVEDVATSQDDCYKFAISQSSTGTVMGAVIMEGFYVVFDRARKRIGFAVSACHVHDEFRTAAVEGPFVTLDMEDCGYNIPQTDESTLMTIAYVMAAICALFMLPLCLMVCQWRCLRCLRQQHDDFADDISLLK

Molecule `COc1ccccc1CNCC(O)C(Cc1ccccc1)NC(=O)c1cc(C(=O)NC(C)c2ccccc2)cc(N(C)S(C)(=O)=O)c1` (centres unmarked) [N1-(3-hydroxy-4-(2-methoxybenzylamino)-1-phenylbutan-2-yl)-5-(N-methylmethylsulfonamido)-N3-(1-phenylethyl)isophthalamide] has a Ki (memapsin 2) of less than 300 nM, a Ki (cathepsin D) of less than 300 nM and a Ki (memapsin 1) of 301 to 500 nM. It also gave an IC50 [1] of less than 1000 nM.

Molecule `Cc1csc(CN(C)C(=O)c2cccc(C(=O)NC(Cc3ccccc3)C(O)CNC(C)c3ccccc3)c2)n1` (centres unmarked) [N1-(3-hydroxy-1-phenyl-4-(1-phenylethylamino)butan-2-yl)-N3-methyl-N3-((4-methylthiazol-2-yl)methyl)isophthalamide] has a Ki (memapsin 2) greater than 501 nM, a Ki (cathepsin D) greater than 501 nM and a Ki (memapsin 1) of less than 300 nM. The IC50 [1] was 1000 to 5000 nM.

For `CC(NC(=O)c1cc(C(=O)NC(Cc2ccccc2)C(O)CNCc2ccncc2)cc(N(C)S(C)(=O)=O)c1)c1ccccc1` (centres unmarked) [N1-(3-hydroxy-1-phenyl-4-(pyridin-4-ylmethylamino)butan-2-yl)-5-(N-methylmethylsulfonamido)-N3-(1-phenylethyl)isophthalamide], the Ki (memapsin 2) was less than 300 nM, the Ki (cathepsin D) was greater than 501 nM and the Ki (memapsin 1) was 301 to 500 nM. For the same molecule, the IC50 [1] was less than 1000 nM.

For `CC(NC(=O)c1cc(C(=O)NC(Cc2ccccc2)C(O)CNCc2ccccc2)cc(N(C)S(C)(=O)=O)c1)c1ccccc1` (centres unmarked) [N1-(4-(benzylamino)-3-hydroxy-1-phenylbutan-2-yl)-5-(N-methylmethylsulfonamido)-N3-(1-phenylethyl)isophthalamide], the Ki (memapsin 2) was less than 300 nM, the Ki (cathepsin D) was less than 300 nM and the Ki (memapsin 1) was less than 300 nM. For the same molecule, the IC50 [1] was less than 1000 nM.

Molecule `CC(NCC(O)C(Cc1ccccc1)NC(=O)c1cc(C(=O)NC(C)c2ccccc2)cc(N(C)S(C)(=O)=O)c1)c1ccccc1` (centres unmarked) [N1-(3-hydroxy-1-phenyl-4-(1-phenylethylamino)butan-2-yl)-5-(N-methylmethylsulfonamido)-N3-(1-phenylethyl)isophthalamide] has a Ki (memapsin 2) of less than 300 nM, a Ki (cathepsin D) of less than 300 nM and a Ki (memapsin 1) of 301 to 500 nM. For the same molecule, the IC50 [1] was less than 1000 nM.
